Data published in patent US11951088B2, “Fatty acid analogs and their use in the treatment of conditions related to metabolic syndrome” (Epitracker, Inc., priority 2017, dated 2024).
Read-outs that look alike come from different tables or passages of the source. Each block holds one compound with its values, some of them ahead of it.

Legend:
[1] = test system: 12 human primary cell-based systems; assay: BioMAP Diversity Plus panel, biomarker readouts; conditions: compared to C15:0-treated systems and non-treated controls; 740 nm and 2.2, 6.7 and 20 μM
Text: This study examined and compared activities of a saturated free fatty acid (C15:0) and three substituents (2-methyl-, 2,2-dimethyl-, and 1-tetrazole-C15:0) across 12 human primary cell-based systems as part of DiscoverX's BioMAP Diversity Plus program. These systems are designed to model complex human tissue and disease biology of the vasculature, skin, lung, and inflammatory tissues. Quantitative measurements of biomarker activities across this broad panel, along with comparative analysis of biological activities of known bioactive agents were used to predict and compare the efficacy and function of the four compounds.
BioMAP panels consist of human primary cell-based systems designed to model different aspects of the human body in an in vitro format. The 12 systems in the Diversity PLUS panel allow test agent characterization in an unbiased way across a broad set of systems modeling various human disease states. BioMAP systems are constructed with one or more primary cell types from healthy human donors, with stimuli (such as cytokines or growth factors) added to capture relevant signaling networks that naturally occur in human tissue or pathological conditions. Vascular biology is modeled in both a Th1 (3C system) and a Th2 (4H system) inflammatory environment, as well as in a Th1 inflammatory state specific to arterial smooth muscle cells (CASM3C system). Additional systems recapitulate aspects of the systemic immune response including monocyte-driven Th1 inflammation (LPS system) or T cell stimulation (SAg system), chronic Th1 inflammation driven by macrophage activation (lMphg system) and the T cell-dependent activation of B cells that occurs in germinal centers (BT system). The BE3C system (Th1) and the BF4T system (Th2) represent airway inflammation of the lung, while the MyoF system models myofibroblast-lung tissue remodeling. Lastly, skin biology is addressed in the KF3CT system modeling Th1 cutaneous inflammation and the HDF3CGF system modeling wound healing.
Each test agent generates a signature BioMAP profile that is created from the changes in protein biomarker readouts within individual system environments. Biomarker readouts (7-17 per system) are selected for therapeutic and biological relevance, are predictive for disease outcomes or specific drug effects and are validated using agents with known mechanism of action (MoA). Each readout is measured quantitatively by immune-based methods that detect protein (e.g., ELISA) or functional assays that measure proliferation and viability. BioMAP readouts are diverse and include cell surface receptors, cytokines, chemokines, matrix molecules and enzymes.

human PPAR-α = target: T1, human PPAR-α (Homo sapiens, UniProt Q07869); assay: PathHunter NHR Protein Interaction assay, PPAR-α agonist activity (CHO cells)
T1 sequence (Q07869 1-468): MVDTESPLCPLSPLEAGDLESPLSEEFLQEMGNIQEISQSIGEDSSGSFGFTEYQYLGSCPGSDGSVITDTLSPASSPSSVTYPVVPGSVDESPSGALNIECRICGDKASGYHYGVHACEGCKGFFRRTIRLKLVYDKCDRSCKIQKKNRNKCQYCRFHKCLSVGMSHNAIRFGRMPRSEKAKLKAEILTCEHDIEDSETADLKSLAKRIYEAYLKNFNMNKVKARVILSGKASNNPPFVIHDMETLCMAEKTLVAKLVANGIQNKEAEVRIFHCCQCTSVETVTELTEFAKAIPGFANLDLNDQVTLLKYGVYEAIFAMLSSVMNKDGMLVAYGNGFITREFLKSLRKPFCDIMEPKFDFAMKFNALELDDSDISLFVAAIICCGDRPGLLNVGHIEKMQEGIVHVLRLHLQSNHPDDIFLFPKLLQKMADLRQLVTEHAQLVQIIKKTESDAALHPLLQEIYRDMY
Protocol: (§1) PPAR-α, PPAR-δ, and PPAR-γ agonist activities were measured using PathHunter Nuclear Hormone Receptor (NHR) Protein Interaction (Pro) assays (DiscoverX, Freemont, California). Briefly, Chinese hamster ovary (CHO) cell lines were used to monitor the activation of PPAR-α, PPAR-δ, and PPAR-γ in a homogenous, non-imaging assay format using Enzyme Fragment Complementation (EFC). The NHR Pro assay was based on detection of protein-protein interactions between activated, full length PPAR-α, PPAR-δ, and PPAR-γ proteins and a nuclear fusion protein containing Steroid Receptor Co-activator Peptide (SRCP) domains with one or more canonical LXXLL interaction motifs. PPAR-α, PPAR-δ, and PPAR-γ were tagged with the ProLink component of the EFC assay system, and the SRCP domain was fused to the enzyme acceptor component (EA) expressed in the nucleus. When bound by ligand, PPAR-α, PPAR-δ, or PPAR-γ migrated to the nucleus and recruited the SRCP domain, whereby complementation occurred, generating a unit of active β-Galactosidase (β-Gal) and production of chemiluminescent signal. […] Percentage activity was calculated using the following formula: % Activity=100%×(mean RLU of test sample−mean RLU of vehicle control)/(mean MAX control ligand−mean RLU of vehicle control).

human PPAR-δ = target: T2, human PPAR-δ (Homo sapiens, UniProt Q03181); assay: PathHunter NHR Protein Interaction assay, PPAR-δ agonist activity (CHO cells)
T2 sequence (Q03181 1-441): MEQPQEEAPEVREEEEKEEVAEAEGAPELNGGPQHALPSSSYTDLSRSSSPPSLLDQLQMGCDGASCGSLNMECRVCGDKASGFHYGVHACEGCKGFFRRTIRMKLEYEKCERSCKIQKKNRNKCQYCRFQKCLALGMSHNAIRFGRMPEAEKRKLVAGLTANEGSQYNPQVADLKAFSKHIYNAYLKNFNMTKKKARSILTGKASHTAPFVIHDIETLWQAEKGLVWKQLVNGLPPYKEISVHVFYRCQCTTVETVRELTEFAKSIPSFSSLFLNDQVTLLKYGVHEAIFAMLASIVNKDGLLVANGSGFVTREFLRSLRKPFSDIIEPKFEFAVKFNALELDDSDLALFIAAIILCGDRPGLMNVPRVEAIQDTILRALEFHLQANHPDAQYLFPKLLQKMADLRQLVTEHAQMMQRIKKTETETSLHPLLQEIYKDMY
Protocol: as §1

human PPAR-γ = target: T3, human PPAR-γ (Homo sapiens, UniProt P37231); assay: PathHunter NHR Protein Interaction assay, PPAR-γ agonist activity (CHO cells)
T3 sequence (P37231 1-505): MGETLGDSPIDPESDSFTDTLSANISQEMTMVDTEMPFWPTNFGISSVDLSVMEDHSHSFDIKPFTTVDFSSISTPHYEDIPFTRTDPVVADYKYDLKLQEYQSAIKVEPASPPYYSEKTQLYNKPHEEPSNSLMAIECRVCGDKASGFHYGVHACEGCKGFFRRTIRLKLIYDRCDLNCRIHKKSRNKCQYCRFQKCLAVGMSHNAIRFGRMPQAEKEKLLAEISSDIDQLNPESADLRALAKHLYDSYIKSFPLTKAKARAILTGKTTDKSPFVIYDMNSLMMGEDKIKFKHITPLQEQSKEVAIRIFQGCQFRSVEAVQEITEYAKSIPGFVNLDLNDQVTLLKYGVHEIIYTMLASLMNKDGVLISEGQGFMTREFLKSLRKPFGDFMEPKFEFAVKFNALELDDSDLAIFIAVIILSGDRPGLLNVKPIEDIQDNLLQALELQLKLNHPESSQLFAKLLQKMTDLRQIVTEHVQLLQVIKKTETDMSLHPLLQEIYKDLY
Protocol: as §1

[2] = 24-hour plasma pharmacokinetics after single oral dose in rats; assay type: in vivo; conditions: for bioavailability: po
[3] = test system: C57BL/6J mice fed a high fat diet; assay: diet-induced obese mice treated daily by gastric gavage for 12 weeks; assay type: in vivo; conditions: for Cholesterol / Glucose / IL-6 / Insulin / LDL-C / MCP-1 / TNF-α: Day 84, 6 h fasted
Protocol: Forty C57BL/6J mice were fed a high fat diet (HFD) (D12492, 60% kcals fat) for 8 weeks. Study mice were then divided into the following four groups of ten: vehicle controls, low dose C17:0-treated (5 mg/kg body weight), high-dose C17:0-treated (50 mg/kg body weight), and low-dose C15:0-treated (5 mg/kg body weight).
Table 1 provides comparisons of cardiometabolic effects in diet-induced obese mice treated daily with oral pentadecanoic acid (5 mg/kg BW), heptadecanoic acid (5 and 50 mg/kg BW) for 12 weeks compared to vehicle controls. “Results” values are based on 6 h fasted samples.

[4] = Half Maximal Effective Concentration (EC50), PPAR-α, Table 5
[5] = CHO, read-out: Maximum Response

Compound: CCCCCCCCCCCCCC(C)(C)C(=O)O [2,2-dimethyl-C15:0, 2,2-dimethylpentadecanoic acid]
CD38 [1]: lower
CD99 [1]: lower
ICAM-1 [1]: lower
IL-1α [1]: lower
IL-8 [1]: lower
IP-10 [1]: lower
IP-18 [1]: lower
MCP-1 [1]: lower
MIG [1]: lower
MMP-1 [1]: lower
MMP-3 [1]: lower
MMP-9 [1]: lower
PAI-1 [1]: lower
VCAM-1 [1]: lower
eotaxin-3 [1]: lower
keratin 8/18 [1]: lower
tissue factor [1]: lower

Compound: CCCCCCCCCCCCCC(CC)C(=O)O (stereo not drawn) [2-ethyl-C15:0, 2-ethylpentadecanoic acid]
EC50 (human PPAR-α; [4]): 1.2 µM
EC50 % improvement over FFA form (human PPAR-α; PPAR-α, compared to free fatty acid form): 90%
EC50 (human PPAR-δ): 0.3 µM
EC50 % improvement over FFA form (human PPAR-δ; PPAR-δ, compared to free fatty acid form): 89%
EC50 (human PPAR-γ): 51 µM
EC50 % improvement over FFA form (human PPAR-γ; PPAR-γ, compared to free fatty acid form): >49%
PPAR-γ agonist activity (in words) (human PPAR-γ; compared to the free fatty acid form): acquired PPAR-γ agonist activity

Cmin ([2]; 5 mg/kg single oral dose): 660 ng/mL
Tlast ([2]; 5 mg/kg single oral dose): 24 h
Cmin ([2]; 35 mg/kg single oral dose): 3790 ng/mL
Tlast ([2]; 35 mg/kg single oral dose): 24 h
AUC(0-t) ([2]; rat, 5 mg/kg single oral dose): 28.4 µg·h/mL
Cmax ([2]; rat, 5 mg/kg single oral dose, deuterated form): 3590 ng/mL
AUC(0-t) ([2]; rat, 35 mg/kg single oral dose): 182 µg·h/mL
bioavailability ([2]; rat, 5 mg/kg, 5 mg/kg single oral dose, estimate using an AUC of 15 for a 1 mg/kg IV arm, read-out: % F): 37.8%
bioavailability ([2]; rat, 35 mg/kg, 35 mg/kg single oral dose, estimate using an AUC of 15 for a 1 mg/kg IV arm, read-out: % F): 34.7%
bioavailability ([2]; rat, 35 mg/kg, oral, rats, read-out: estimated plasma % F (bioavailability)): ~35%
Compound: CCCCCCCCCCCCCC(C)C(=O)O (stereo not drawn) [2-methyl-C15:0, 2-methylpentadecanoic acid]
CD40 [1]: lower
ICAM-1 [1]: lower
IL-1α [1]: lower
IL-8 [1]: lower
IP-10 [1]: lower
IP-18 [1]: lower
MCP-1 [1]: lower
MIG [1]: lower
MMP-1 [1]: lower
MMP-3 [1]: lower
MMP-9 [1]: lower
PAI-1 [1]: lower
VCAM-1 [1]: lower
eotaxin-3 [1]: lower
keratin 8/18 [1]: lower
secreted IgG [1]: lower

Compound: CCCCCCCCCCCCCC(=O)O [C14:0, myristic acid]
EC50 (human PPAR-α; EC50, PPAR-alpha, Table 4): 8.35 µM
EC50 (human PPAR-α; [4]): 8.4 µM
EC50 (human PPAR-γ): > 100 µM

Compound: CCCCCCCCCCCCCCCC(=O)O [C16:0, palmitic acid]
Emax (human PPAR-α; [5]): 56.1%
EC50 (human PPAR-α; EC50, PPAR-alpha, Table 4): 27.3 µM
EC50 (human PPAR-α; EC50, PPAR-alpha, Table 7): 27.3 µM
EC50 (human PPAR-α; [4]): 27.3 µM
EC50 (human PPAR-γ): > 100 µM
Emax (human PPAR-γ; [5]): 4.68%
EC50 (human PPAR-γ; PPAR-gamma, Table 7): > 100 µM
EC50 (human PPAR-γ; read-out: Half Maximal Effective Concentration (EC50), PPAR-γ, Table 5): > 100 µM

Compound: CCCCCCCCCCCCCCCCC(=O)O [C17:0, heptadecanoic acid]
metabolic syndrome compared to vehicle controls (in words) ([3]; 12 weeks daily oral, C15:0 5 mg/kg, C17:0 5 and 50 mg/kg): trended toward attenuated metabolic syndrome
Cholesterol ([3]; 5 mg/kg daily oral): 197 ± 31 mg/dL
Glucose ([3]; 5 mg/kg daily oral): 296 ± 23 mg/dL
IL-6 ([3]; 5 mg/kg daily oral): 42 ± 40 pg/mL
Insulin ([3]; 5 mg/kg daily oral): 7.4 ± 4.8 ng/mL
LDL-C ([3]; 5 mg/kg daily oral): 9 ± 3 mg/dL
MCP-1 ([3]; 5 mg/kg daily oral): 86 ± 30 pg/mL
TNF-α ([3]; 5 mg/kg daily oral): 3.7 ± 1.9 pg/mL
Cholesterol ([3]; 50 mg/kg daily oral): 187 ± 44 mg/dL
Glucose ([3]; 50 mg/kg daily oral): 282 ± 31 mg/dL
IL-6 ([3]; 50 mg/kg daily oral): 38 ± 32 pg/mL
Insulin ([3]; 50 mg/kg daily oral): 6.8 ± 3.5 ng/mL
LDL-C ([3]; 50 mg/kg daily oral): 8 ± 3 mg/dL
MCP-1 ([3]; 50 mg/kg daily oral): 53 ± 32 pg/mL
TNF-α ([3]; 50 mg/kg daily oral): 1.5 ± 1.5 pg/mL
EC50 (human PPAR-α; EC50, PPAR-alpha, Table 4): > 100 µM
EC50 (human PPAR-γ): > 100 µM
